Measured values taken from the supplement of paper PMC10307832.

Tests used:
Assay in all cases: relative viability (nuclei count vs DMSO), 5 days (fraction); higher = more cells survive
[1] = compound: O=C(NCCCNc1nc(Nc2cccc(NC(=O)N3CCCC3)c2)ncc1I)c1cccs1 [BX 795] + C[C@]1(O)C[C@@H](c2nc(-c3ccc4ccc(-c5ccccc5)nc4c3)c3c(N)nccn32)C1 [Linsitinib] (partner 1 µM)
Method in brief: (§1)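 For relative viability, nuclei counts in treated wells were divided by those in vehicle wells. Lung cancer cell lines had been pin-tool dosed in 1536-well plates the day after seeding and cultured for 5 days, then fixed and stained in one step (final 0.05% Triton X-100, 1% formaldehyde, 1 ug/ml Hoechst) and imaged at 4×. Doses were one drug alone or a fixed anchor-drug dose plus five library-drug doses (not always all listed) in √10 steps, and values are duplicate-plate medians.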

[2] = compound: O=C(NCCCNc1nc(Nc2cccc(NC(=O)N3CCCC3)c2)ncc1I)c1cccs1 [BX 795] + COc1cc2c(Oc3ccc(NC(=O)C4(C(=O)Nc5ccc(F)cc5)CC4)cc3F)ccnc2cc1OCCCN1CCOCC1 [Foretinib] (partner 0.25 µM)
Method in brief: as §1

[3] = compound: O=C(NCCCNc1nc(Nc2cccc(NC(=O)N3CCCC3)c2)ncc1I)c1cccs1 [BX 795] + Cc1cc(Nc2cc(N3CCN(C)CC3)nc(Sc3ccc(NC(=O)C4CC4)cc3)n2)n[nH]1 [Tozasertib] (partner 0.1 µM)
Method in brief: as §1

[4] = compound: O=C(NCCCNc1nc(Nc2cccc(NC(=O)N3CCCC3)c2)ncc1I)c1cccs1 [BX 795] + NC(=O)Nc1cc(-c2cccc(F)c2)sc1C(=O)N[C@H]1CCCNC1 [AZD7762] (partner 0.2 µM)
Method in brief: as §1

[5] = compound: O=C(NCCCNc1nc(Nc2cccc(NC(=O)N3CCCC3)c2)ncc1I)c1cccs1 [BX 795] + O=C(c1cc(Cc2n[nH]c(=O)c3ccccc23)ccc1F)N1CCN(C(=O)C2CC2)CC1 [Olaparib] (partner 8 µM)
Method in brief: as §1

| Cell Line | relative viability ([1]; first compound 0.04 µM) | relative viability ([1]; first compound 0.1265 µM) | relative viability ([1]; first compound 0.4 µM) | relative viability ([1]; first compound 1.265 µM) | relative viability ([2]; first compound 0.04 µM) | relative viability ([2]; first compound 0.1265 µM) | relative viability ([2]; first compound 0.4 µM) | relative viability ([2]; first compound 1.265 µM) | relative viability ([3]; first compound 0.04 µM) | relative viability ([3]; first compound 0.1265 µM) | relative viability ([3]; first compound 0.4 µM) | relative viability ([3]; first compound 1.265 µM) | relative viability ([4]; first compound 0.04 µM) | relative viability ([4]; first compound 0.1265 µM) | relative viability ([4]; first compound 0.4 µM) | relative viability ([4]; first compound 1.265 µM) | relative viability ([5]; first compound 0.04 µM) | relative viability ([5]; first compound 0.1265 µM) | relative viability ([5]; first compound 0.4 µM) | relative viability ([5]; first compound 1.265 µM) |
| --- | --- | --- | --- | --- | --- | --- | --- | --- | --- | --- | --- | --- | --- | --- | --- | --- | --- | --- | --- | --- |
| HCC-15 | 0.915 | 0.964 | 0.937 | 0.675 | 0.973 | 1.04 | 0.925 | 0.915 | 0.444 | 0.359 | 0.482 | 0.246 | 1.21 | 1.26 | 1.27 | 1.18 | 0.857 | 0.73 | 1.04 | 0.499 |
| HCC-44 | 0.648 | 0.668 | 0.787 | 0.426 |  |  |  |  | 0.934 | 1.05 | 0.581 | 0.351 | 0.976 | 1 | 1.09 | 1.09 | 0.995 | 1.01 | 1.06 | 1 |
| HCC-78 | 0.624 | 0.657 | 0.534 | 0.554 | 0.665 | 0.537 | 0.596 | 0.5 | 0.472 | 0.317 | 0.345 | 0.386 | 0.583 | 0.631 | 0.606 | 0.594 | 1.1 | 0.811 | 0.882 | 0.605 |
| IA-LM | 0.615 | 0.452 | 0.769 | 0.626 | 1.15 | 1.19 | 1.28 | 0.628 |  |  |  |  |  |  |  |  | 0.783 | 0.797 | 0.768 | 0.757 |
| NCI-H520 | 0.746 | 1.06 | 0.859 | 0.359 | 0.555 | 0.772 | 0.832 | 0.365 | 0.44 | 0.447 | 0.421 | 0.401 |  |  |  |  | 0.334 | 0.357 | 0.307 | 0.22 |
| NCI-H661 | 0.615 | 0.641 | 0.34 | 0.433 | 1.09 | 1.04 | 1.03 | 0.908 | 0.374 | 0.369 | 0.378 | 0.412 |  |  |  |  | 0.742 | 0.826 | 0.662 | 0.583 |
| NCI-H1563 | 1.36 | 1.23 | 1.3 | 0.905 | 0.914 | 1.04 | 0.925 | 0.848 |  |  |  |  |  |  |  |  |  |  |  |  |
| NCI-H1650 |  |  |  |  | 1.24 | 1.06 | 0.668 | 0.792 | 0.548 | 0.425 | 0.377 | 0.25 |  |  |  |  | 0.903 | 0.713 | 0.711 | 0.814 |
| NCI-H1792 | 0.559 | 0.673 | 0.461 | 0.424 |  |  |  |  |  |  |  |  | 0.616 |  | 0.696 | 0.576 | 0.401 |  | 0.302 | 0.422 |
| NCI-H2009 | 1.27 | 1.19 | 1.19 | 0.871 | 1.21 | 1.19 | 1.16 | 1.11 | 0.705 | 0.714 | 0.678 | 0.381 |  |  |  |  | 0.717 | 0.632 | 0.575 | 0.355 |
| NCI-H2023 | 0.572 | 0.71 | 0.445 | 0.314 | 0.722 | 0.912 | 0.427 | 0.551 | 0.316 | 0.295 | 0.215 | 0.139 |  |  |  |  | 0.461 | 0.494 | 0.403 | 0.26 |
| NCI-H2170 |  |  |  |  | 0.979 | 1.02 | 1.05 | 0.998 | 0.724 | 0.731 | 0.74 | 0.712 | 0.874 | 1.09 | 0.812 | 0.791 | 0.597 | 0.681 | 0.538 | 0.487 |
| NCI-H2228 | 1.25 | 0.643 | 0.662 | 0.474 | 1.05 | 0.967 | 1.13 | 0.625 | 0.283 | 0.247 | 0.303 | 0.217 |  |  |  |  | 0.788 | 0.74 | 0.559 | 0.311 |
| SK-LU-1 | 1.03 | 1.13 | 0.722 | 0.777 | 0.762 | 0.902 |  | 0.569 | 0.312 | 0.356 |  | 0.211 |  |  |  |  | 0.484 | 0.519 | 0.31 | 0.413 |
| SK-MES-1 | 1.11 | 0.985 | 0.992 | 0.745 | 0.917 | 0.971 | 0.823 | 0.674 | 0.883 | 0.832 | 0.905 | 0.223 |  |  |  |  | 0.746 | 0.646 | 0.688 | 0.383 |
| SW 900 |  |  |  |  | 0.938 | 1.04 | 0.968 | 0.569 | 0.571 | 0.549 | 0.657 | 0.233 | 0.55 |  | 0.619 | 0.633 | 0.755 |  | 1.25 | 0.775 |
| SW 1573 | 0.962 | 0.873 | 1.02 | 0.629 | 0.916 | 0.844 | 0.971 | 0.777 | 0.209 | 0.185 | 0.142 | 0.155 |  |  |  |  | 0.673 | 0.531 | 0.669 | 0.238 |
| UMC-11 | 0.751 | 1.02 | 0.95 | 0.348 | 0.85 | 1.06 | 0.805 | 0.168 | 0.189 | 0.195 | 0.185 | 0.22 |  |  |  |  | 0.381 | 0.32 | 0.861 | 0.27 |
